Structures can show the parent of a compound that is named as a salt.

Here are results for seven molecules from patent publication US11434242B2, “Dopamine-b-hydroxylase inhibitors” (BIAL-PORTELA & Cª, S.A., priority 2017, dated 2022).

The assay has as its target T1, Dopamine beta hydroxylase (Rattus norvegicus, UniProt Q05754).
T1 construct: Samples were constituted by the right and left adrenals of each animal; from tissue; host or cells: Wistar rat adrenal glands (homogenate)
T1 sequence (Q05754 1-620): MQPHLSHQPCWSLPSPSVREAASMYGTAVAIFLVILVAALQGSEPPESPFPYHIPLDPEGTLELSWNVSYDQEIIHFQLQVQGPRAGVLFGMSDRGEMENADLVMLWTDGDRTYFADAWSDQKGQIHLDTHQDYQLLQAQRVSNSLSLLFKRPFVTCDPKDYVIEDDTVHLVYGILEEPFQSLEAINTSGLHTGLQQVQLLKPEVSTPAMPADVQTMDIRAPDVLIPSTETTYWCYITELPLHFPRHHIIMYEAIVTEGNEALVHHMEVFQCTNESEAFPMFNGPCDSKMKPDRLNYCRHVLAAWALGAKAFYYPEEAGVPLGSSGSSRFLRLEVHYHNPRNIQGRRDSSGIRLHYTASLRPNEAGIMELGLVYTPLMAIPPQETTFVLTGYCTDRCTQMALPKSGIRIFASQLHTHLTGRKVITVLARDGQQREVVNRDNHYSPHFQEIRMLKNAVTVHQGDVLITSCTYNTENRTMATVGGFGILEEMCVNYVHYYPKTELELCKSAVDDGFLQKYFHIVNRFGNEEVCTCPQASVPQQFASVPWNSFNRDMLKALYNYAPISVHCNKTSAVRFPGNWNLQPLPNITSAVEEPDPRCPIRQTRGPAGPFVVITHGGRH
Nature of the assay: DβH activity in rat adrenal gland homogenates after oral administration. To be noted: 10 mg/kg oral; for DβH activity in ADR (% Control): rat adrenal gland homogenates, maximal within 6 h post-dose, mean±SD of 4 rats; for DβH inhibition in peripheral tissues such as ADR: rat. Format: in vivo. As to the method:
Dopamine beta hydroxylase activity in rat adrenal gland homogenates was measured by the method of Nagatsu and Udenfriend (Nagatsu, T. and Udenfriend, S. “Photometric assay of dopamine-μ-hydroxylase activity in human blood.” Clin. Chem. 18(9) 980-983, 1972) with minor modifications. Catalase, N-ethylmaleimide, tyramine, disodium fumarate, pargyline, sodium acetate, ascorbic acid, copper sulfate and octopamine were obtained from Sigma Chemical Co., St. Louis, Mo. 63178. Test compounds were prepared in kleptose 40% at a concentration of 0.75, 2.5 or 7.5 mg/mL to be administered at a dose of 10 mg/kg. Compounds and vehicle (kleptose 40%) were administered to wistar rats and adrenals were collected 0.5 h, 1 h, 2 h, 4 h, 6 h, 8 h, 15 h and 24 h after administration. Samples were constituted by the right and left adrenals of each animal. Adrenals were stored in 200 μL of 50 mM Tris pH 7.4 at −30° C., from date of collection. The samples were homogenized and homogenates were then quantified for protein. Protein concentration was adjusted to 1.6 mg/ml. The various reagents used to make up the incubation buffer were premixed and consisted of the following components: sodium acetate buffer (1 M, pH 5.0, 6.0 mL), sodium fumarate (0.2 M, 1.5 mL), ascorbic acid (0.2 M, 1.5 mL, freshly prepared), pargyline (20 mM, freshly prepared, 1.5 mL), N-ethylmaleimide (0.2 M, 1.5 mL), catalase (55 000 U/ml, 3 mL), copper sulfate (90 μM, 1.67 mL) and ultrapure water (1.33 mL). The standard incubation mixture (total volume, 500 μL) contained: 350 μL of incubation buffer; 125 μL of protein sample (or buffer for blank reaction or standard curve). The reaction mixture was placed in water bath with shaking at 37° C. and pre-incubated for 10 minutes. Tyramine (0.4 M, 25 μL) was added and incubation proceeded for 45 minutes. The reaction contents were exposed to air. A sample of enzyme preparation (with 125 μL of protein sample) that had been added perchloric acid 2 M at the end of the pre-incubation period was used as blank. A blank for each of the tested compounds was used. For octopamine standard curve, perchloric acid 2 M was replaced by increasing concentrations of octopamine prepared in perchloric acid 2 M (0.5, 1, 2.5, 5, 7.5, 10 μg/mL, final concentration). The incubation was stopped by adding 50 μL of 2 M molar perchloric acid, and the mixture was centrifuged at 16000 g for 3 min. The supernatant fluid (500 μL) was transferred to a column (SPE cartridge ISOLUTE SCX-3, 100 mg) and centrifuged at 150 g for 2 min. The column was washed two more times with 0.5 ml of ultrapure water by centrifuging at 150 g for 2 min. The adsorbed octopamine was eluted twice with 250 μL of 4 M ammonium hydroxide by centrifuging at 150 g for 2 min. Octopamine in the eluate was then converted to p-hydroxybenzaldehyde by adding 100 μL of sodium periodate (2%) and incubating for 6 min. Excess periodate was than reduced by adding 100 μl of sodium metabisulfite (10%). Absorbance was measured at […] in a 96 well plate by use of a SpectraMAX plus 384 (Molecular Devices) with software SOFTmax® PRO Software 5.3 spectrophotometer. Absorbance was linear with octopamine concentration from 0.5 to 10 μg/mL. Dopamine beta hydroxylase activity is determined as nmol of octopamine formed/mg of protein/hour and effect of compounds is presented as % of control.

As to `Cn1c(CC(=O)O)c2n(c1=S)C[C@@]1(c3c(F)ccc(Cl)c3F)C[C@@H]21` [Example 231, 2-((5aS,6aR)-5a-(3-chloro-2,6-difluorophenyl)-2-methyl-3-thioxo-2,3,5,5a,6,6a-hexahydrocyclopropa[3,4]pyrrolo[1,2-c]imidazol-1-yl)acetic Acid], the “DβH activity in ADR (% Control)” value amounted to 43 ± 9 % Control and the “DβH inhibition in peripheral tissues such as ADR” value (from here on “DβH inhibition”) is recorded as “inhibit DβH”.

As to `Fc1ccc(Br)c(F)c1[C@@H]1Cc2c(CCN3CCOCC3)[nH]c(=S)n2C1` [Example 195, (S)-6-(3-bromo-2,6-difluorophenyl)-1-(2-morpholinoethyl)-2,5,6,7-tetrahydro-3H-pyrrolo[1,2-c]imidazole-3-thione], the “DβH activity in ADR (% Control)” value came to 21 ± 9 % Control and the “DβH inhibition” value is recorded as “inhibit DβH”.

Turning to `Cl.Fc1ccc(Cl)cc1[C@]12C[C@H]1c1c(CCN3CCOCC3)[nH]c(=S)n1C2` [Example 174, (5aS,6aR)-5a-(5-chloro-2-fluorophenyl)-1-(2-morpholinoethyl)-5,5a,6,6a-tetrahydrocyclopropa[3,4]pyrrolo[1,2-c]imidazole-3(2H)-thione hydrochloride], the “DβH activity in ADR (% Control)” value is 39 ± 18 % Control and the “DβH inhibition” value is reported as “inhibit DβH”.

On to `CN(C(=O)Cc1c2n(c(=S)n1C)C[C@@]1(c3c(F)ccc(Cl)c3F)C[C@@H]21)C1COC1` [Example 403, 2-((5aS,6aR)-5a-(3-chloro-2,6-difluorophenyl)-2-methyl-3-thioxo-2,3,5,5a,6,6a-hexahydrocyclopropa[3,4]pyrrolo[1,2-c]imidazol-1-yl)-N-methyl-N-(oxetan-3-yl)acetamide], for which the “DβH activity in ADR (% Control)” value came out at 0 ± 0 % Control and the “DβH inhibition” value is listed as “inhibit DβH”.

In the case of `F.Fc1ccc(Br)cc1[C@]12C[C@H]1c1c(CCN3CCOCC3)[nH]c(=S)n1C2` [Example 191, (5aS,6aR)-5a-(5-bromo-2-fluorophenyl)-1-(2-morpholinoethyl)-5,5a,6,6a-tetrahydrocyclopropa[3,4]pyrrolo[1,2-c]imidazole-3(2H)-thione hydrofluoride], the “DβH activity in ADR (% Control)” value turned out to be 45 ± 8 % Control and the “DβH inhibition” value is listed as “inhibit DβH”.

Regarding `Fc1cc(F)c(F)c([C@H]2Cc3c(CCCN4CCCC4)[nH]c(=S)n3C2)c1F` [Example 219, (R)-1-(3-(pyrrolidin-1-yl)propyl)-6-(2,3,5,6-tetrafluorophenyl)-2,5,6,7-tetrahydro-3H-pyrrolo[1,2-c]imidazole-3-thione hydrochloride], the “DβH activity in ADR (% Control)” value came to 43 ± 16 % Control and the “DβH inhibition” value is given as “inhibit DβH”.

For `Cl.Cn1c(CCN[C@@H]2CCOC2)c2n(c1=S)C[C@H](c1c(F)ccc(Br)c1F)C2` [Example 256, (S)-6-(3-bromo-2,6-difluorophenyl)-2-methyl-1-(2-(((R)-tetrahydrofuran-3-yl)amino)ethyl)-2,5,6,7-tetrahydro-3H-pyrrolo[1,2-c]imidazole-3-thione hydrochloride], the “DβH activity in ADR (% Control)” value was 44 ± 22 % Control and the “DβH inhibition” value is listed as “inhibit DβH”.
